Assay [1] concerns trypsin-like proteasome activity in three-dimensional human skin model. Description: Proteasome activity in three-dimensional human skin model. It is filed as cell-based. The following applies: for proteasome activity compared to the sample not given any treatment under UV irradiation (75%) / proteasome activity compared to the sample not given any treatment: FIG. 11; for proteasome activity compared to the sample not given any treatment: without UV irradiation; for effect on proteasome activity: retinoic acid and retinol at 3 and 10 μM. How it is done: (§1) Three-dimensional human skin models are widely used in safety evaluation and effectiveness evaluation as a simulated model of human skin. In this test, TESTSKIN (LSE-high) (Toyobo Co., Ltd.) was used as a three-dimensional human skin model.
(§2) A culture medium was added to the outer well of TESTSKIN (LSE-high) and cultured for 24 hours. UVA and UVB were irradiated at 10 J/cm^2 and 100 mJ/cm^2, respectively. UVB was irradiated for 2 minutes at a UV intensity of […] using FL20S-E-30/DMR (Clinical Supply Co., Ltd.) to achieve a total irradiation dose of 100 mJ/cm^2. UV intensity was measured using a UV MONITOR MS-211-I (Eiko Instruments Co., Ltd.).
(§3) Thereafter, the culture solution was changed and each agent was added by 100 μl onto the tissues in the assay ring, after which the medium was cultured for 36 hours. Thereafter, the tissues were collected and a tissue extraction solution (50 mM Tris-HCl (pH 7.5), 0.5% (Octylphenoxy) polyethoxyethanol (Sigma-Aldrich Corp.)) was added, and then the mixture was homogenized using a Teflon (registered trademark) homogenizer. The homogenized mixture was centrifuged for 30 minutes at 10,000×G to remove tissue fragments, and then dialyzed overnight in distilled water at 4° C. Thereafter, the dialyzed mixture was freeze-dried to remove water. A tissue extraction solution was added to obtain a ×20 concentrate, and this concentrate was used as a three-dimensional skin model extract sample.
Proteasome activity was measured using a known method (Hayashi, et al., Mechanisms of Aging and Development, Vol. 102, pp. 55-66, 1998) based on cell extract samples.
The specific method is as follows. For the matrix to measure trypsin-like proteasome activity, t-butyloxycarbonyl-L-leucyl-L-arginyl-L-arginyl-L-4-methyl-coumaryl-7-amide (Peptide Institute, Inc.) was used. A cell extract sample containing protein by an equivalent of 10 μg was added to 10.5 μl of a 100 μM matrix solution prepared with 100 mM Tris-HCl (pH 8.0), after which a cell extraction solution was added to a total volume of 50 μl. The obtained solution was treated for 30 minutes at 37° C., after which the fluorescence intensity of the separated 7-amine-4-methyl coumarin was measured at an excitation wavelength (Ex) of 380 nm and absorption waveform (Em) of 440 nm. The result was obtained for each sample type treated with each agent, as an “average ±standard error” calculated from the measured values of three samples.
Based on the above results, it is clear that Bletilla striata extract and silybin promote proteasome activity in a three-dimensional skin model in a manner dependent on the concentration. Accordingly, whether or not a combined use of Bletilla striata extract and silybin would synergistically promote proteasome activity was evaluated. Also, whether or not a combined use of silybin and soybean saponin, a substance known to have an action to promote proteasome activity, would synergistically promote proteasome activity was evaluated. As a result, regardless of whether or not UV light was irradiated, using silybin (3 μM) in combination with Bletilla striata extract (0.1%; final extract concentration of 0.001%), or using silybin (3 μM) in combination with soybean saponin (0.0005%), promoted proteasome activity synergistically compared to when a sample was treated with silybin (3 μM), Bletilla striata extract (0.1%; final extract concentration of 0.001%) or soybean saponin (0.0005%) alone, as far as promotion of proteasome activity in a three-dimensional skin model was concerned (FIG. 12).

The test system of assay [2] is carbonylated protein in three-dimensional human skin model TESTSKIN (LSE-high). Kind of assay: Carbonylated protein in three-dimensional human skin model, Western blotting (DNPH). It is filed as cell-based. The following applies: for Relative photographic density (carbonylated protein): untreated without UV = 100%; for effect on accumulation of carbonylated protein: retinoic acid and retinol at 3 and 10 μM. Here is the method: as §1, §2
As a control group, three-dimensional human skin models not irradiated with UVA or UVB were also prepared.
as §3
In this test, 2,4-dinitrophenyl hydrazine (DNPH), which specifically bonds with the carbonyl group in the protein produced by oxidation damage, was used to label carbonylated protein, and then detection was performed using an anti-DNPH antibody that specifically bonds with DNPH.
The specific method is explained below. DNPH protein was detected from the protein in the sample by means of Western blotting using a DNPH kit (Oxi Blot™ Protein Oxidation Detection Kit; Chemicon International Inc.). Detection was performed by exposing PVDF membranes to light using a […] (ECL PLUS; Amarsham PLC), and an automatic developer (FPM100; FUJIFILM Medical Co., Ltd.) was used to transfer images. A densitometer (Molecular Dynamics Inc.) was then used to analyze the images to quantify the photographic density. For your information, protein in the sample was reduced and measured as deemed appropriate. In this case, 2-mercaptoethanol was used as a reducing agent and the mixture was heated for 5 minutes at 100° C. to sever the disulfide bond.
Based on the above results, it is clear that Bletilla striata extract and silybin suppress accumulation of carbonylated protein in a three-dimensional skin model in a manner dependent on the concentration. Accordingly, whether or not a combined use of Bletilla striata extract and silybin would synergistically suppress accumulation of carbonylated protein was evaluated. Also, whether or not a combined use of silybin and soybean saponin, a substance known to have an action to suppress accumulation of carbonylated protein, would synergistically suppress accumulation of carbonylated protein was evaluated. As a result, regardless of whether or not UV light was irradiated using silybin (3 μM) in combination with Bletilla striata extract (0.1%; final extract concentration of 0.001%), or using silybin (3 μM) in combination with soybean saponin (0.0005%), suppressed the accumulation of carbonylated protein synergistically compared to when a sample was treated with silybin (3 μM), Bletilla striata extract (0.1%; final extract concentration of 0.001%) or soybean saponin (0.0005%) alone, as far as accumulation of carbonylated protein in a three-dimensional skin model was concerned (FIG. 7 and Table 7; results of non-reduced protein).
In general terms: A western blot detects proteins with antibodies after separation by electrophoresis.

For `CC1=C(/C=C/C(C)=C/C=C/C(C)=C/CO)C(C)(C)CCC1` [Retinol, all-trans-retinol], in assay [1] (10 μM), the “proteasome activity compared to the sample not given any treatment under UV irradiation (75%)” value is “little change”. Also, the “proteasome activity compared to the sample not given any treatment” value in assay [1] (10 μM) is reported as “little change”. Further, the “effect on proteasome activity” value in assay [1] is listed as “no effect”. Besides, the “amount of carbonylated protein compared to the sample not given any treatment under UV irradiation” value is “little change” in assay [2] (non-reduced protein, 10 μM) and “little change” in assay [2] (reduced protein, 10 μM). The “Relative photographic density (carbonylated protein)” value in assay [2] (non-reduced protein, treatment concentration 10 μM, UV (+)) was 315%; in assay [2] (non-reduced protein, treatment concentration 10 μM, UV (−)), 115%; in assay [2] (non-reduced protein, treatment concentration 10 μM, UV (−), listed as retinol), “little change”; in assay [2] (reduced protein, treatment concentration 10 μM, UV (+)), 330%; in assay [2] (reduced protein, treatment concentration 10 μM, UV (−)), 110%; in assay [2] (reduced protein, treatment concentration 10 μM, UV (−), listed as retinol), “little change”. The “effect on accumulation of carbonylated protein” value in assay [2] is on record as “no effect”.

`CC1=C(/C=C/C(C)=C/C=C/C(C)=C/C(=O)O)C(C)(C)CCC1` [Retinoic acid, all-trans-retinoic acid]: the “proteasome activity compared to the sample not given any treatment under UV irradiation (75%)” value in assay [1] (3 μM) was “little change”. Moreover, the “proteasome activity compared to the sample not given any treatment” value in assay [1] (3 μM) is “little change”. Besides, in assay [1], the “effect on proteasome activity” value is listed as “no effect”. In addition, the “amount of carbonylated protein compared to the sample not given any treatment under UV irradiation” value was “little change” in assay [2] (non-reduced protein, 3 μM) and “little change” in assay [2] (reduced protein, 3 μM). In addition, the “Relative photographic density (carbonylated protein)” value in assay [2] (non-reduced protein, treatment concentration 3 μM, UV (+)) was 305%; in assay [2] (non-reduced protein, treatment concentration 3 μM, UV (−)) it was 110%; in assay [2] (non-reduced protein, treatment concentration 3 μM, UV (−), listed as retinoic acid), “little change”; in assay [2] (reduced protein, treatment concentration 3 μM, UV (+)) it was 315%; in assay [2] (reduced protein, treatment concentration 3 μM, UV (−)), 105%; in assay [2] (reduced protein, treatment concentration 3 μM, UV (−), listed as retinoic acid), “little change”. Besides, in assay [2], the “effect on accumulation of carbonylated protein” value is “no effect”.

Values taken from patent publication US20110003760A1, “ABNORMAL PROTEIN REMOVING METHOD” (priority 2005, published 2011).
